US20150218164A1, “SUBSTITUTED NAPHTHYRIDINEDIONE DERIVATIVES AS HIV INTEGRASE INHIBITORS” (MERCK SHARP & DOHME CORP., priority 2012, published 2015)

Tested on: HIV-1 (NL4-3 strain)
Test: Assay for inhibition of HIV replication (MT4-gag-GFP reporter cells, wild type cell assay)
Format: cell-based
Conditions: 50% NHS; MT4-GFP cells infected with HIV-1 NL4-3; infected cells at 48 h / 24 h; read-out: Wild Type Cell Assay IP (% NHS)
Protocol: This assay is a kinetic assay that employs a reporter cell line (MT4-gag-GFP) to quantify the number of new cells infected in each round of replication. Briefly, MT4-GFP cells (250,000 cells/ml) were bulk-infected with HIV-1 (NL4-3 strain) at low multiplicity of infection (MOI) in RPMI+10% FBS for 24 hours. Cells were then washed once in RPMI+10% FBS and resuspended RPMI+10% or 50% normal human serum (NHS). Test compounds were serial-diluted in DMSO on ECHO. The infected MT4-GFP cells were added to a 384-well poly-D-lysine coated black plate with clear bottom in which the diluted test compounds were placed. The cells were seeded at 8,000 cells per well and the final DMSO concentration was 0.4%. The infected cells (Green GFP cells) were quantified at both 24 and 48 hours post incubation using Acumen eX3. Viral reproductive ratio (R0) was determined using the number of infected cells at 48 hours divided by the number of infected cells at 24 hours. Percent viral growth inhibition was calculated by [1−(R−Rtripledrug)/(RDMSO−Rtripledrug)]*100. Compound potency IP or IC50 was determined by a 4-parameter dose response curve analysis.

IC50 [nM] | Compound
28 | CSCC12CC1CCC21NC(=O)c2c3c(c(O)c(=O)n21)C(=O)N(Cc1ccc(F)c(Cl)c1)CC3 (stereo not shown) [Compound 17]

Same assay, conditions: Human immunodeficiency virus 1, NL43, 10% NHS; MT4-GFP cells infected with HIV-1 NL4-3; infected cells at 48 h / 24 h; read-out: Wild Type Cell Assay IP (% NHS)

IC50 [nM] | Compound
7.5 | O=C1c2c(c3n(c(=O)c2O)[C@@]2(CC[C@H]4C[C@H]42)N(CC(O)CF)C3=O)CCN1Cc1ccc(F)c(Cl)c1 (single isomer, unassigned) [Compound 4]
27 | O=C1c2c(c3n(c(=O)c2O)[C@@]2(CC[C@H]4C[C@H]42)N(CC(F)CO)C3=O)CCN1Cc1ccc(F)c(Cl)c1 (single isomer, unassigned) [Compound 5]

Same assay, conditions: Human immunodeficiency virus 1, NL43, 50% NHS; MT4-GFP cells infected with HIV-1 NL4-3; infected cells at 48 h / 24 h; read-out: Wild Type Cell Assay IP (% NHS)

IC50 [nM] | Compound
32 | CC(O)CCN1C(=O)c2c3c(c(O)c(=O)n2[C@@]12CC[C@H]1C[C@H]12)C(=O)N(Cc1ccc(F)c(Cl)c1)CC3 (single isomer, unassigned) [Compound 3]
1090 | C[C@H](CN1C(=O)c2c3c(c(O)c(=O)n2[C@@]12CC[C@H]1C[C@H]12)C(=O)N(Cc1ccc(F)c(Cl)c1)CC3)OP(=O)(O)O [Compound 7]
2090 | CN1C(=O)c2c3c(c(O)c(=O)n2[C@]12CC[C@@H]1C[C@@]12COP(=O)(O)O)C(=O)N(Cc1ccc(F)c(Cl)c1)CC3 (single isomer, unassigned) [Compound 19]
14 | CN1C(=O)c2c3c(c(O)c(=O)n2[C@@]12CC[C@@H]1C[C@@]12CO)C(=O)N(Cc1ccc(F)c(Cl)c1)CC3 [Compound 14]
20 | CSCC12CC1CCC21NC(=O)c2c3c(c(O)c(=O)n21)C(=O)N(Cc1ccc(F)c(Cl)c1)CC3 (stereo not shown) [Compound 16]
24 | CN1C(=O)c2c3c(c(O)c(=O)n2[C@]12CC[C@@H]1C[C@@]12CO)C(=O)N(Cc1ccc(F)c(Cl)c1)CC3 [Compound 15]
37 | CS(=O)(=O)CC12CC1CCC21NC(=O)c2c3c(c(O)c(=O)n21)C(=O)N(Cc1ccc(F)c(Cl)c1)CC3 (stereo not shown) [Compound 18]
53 | C[C@H](O)CN1C(=O)c2c3c(c(O)c(=O)n2[C@@]12CC[C@H]1C[C@H]12)C(=O)N(Cc1ccc(F)c(Cl)c1)CC3 (single isomer, unassigned) [Compound 6]
42 | C[C@H](N)C(=O)O[C@@H](C)CN1C(=O)c2c3c(c(O)c(=O)n2[C@@]12CC[C@H]1C[C@H]12)C(=O)N(Cc1ccc(F)c(Cl)c1)CC3 [Compound 9]
33 | C[C@@H](O)CN1C(=O)c2c3c(c(O)c(=O)n2[C@@]12CC[C@H]1C[C@H]12)C(=O)N(Cc1ccc(F)c(Cl)c1)CC3 (single isomer, unassigned) [Compound 2]

Compound | IC50 [nM]
C[C@@H](CN1C(=O)c2c3c(c(O)c(=O)n2[C@@]12CC[C@H]1C[C@H]12)C(=O)N(Cc1ccc(F)c(Cl)c1)CC3)OC(=O)CN(C)C [Compound 13] | 69
CSCC[C@H](N)C(=O)O[C@@H](C)CN1C(=O)c2c3c(c(O)c(=O)n2[C@@]12CC[C@H]1C[C@H]12)C(=O)N(Cc1ccc(F)c(Cl)c1)CC3 [Compound 11] | 71
C[C@@H](CN1C(=O)c2c3c(c(O)c(=O)n2[C@@]12CC[C@H]1C[C@H]12)C(=O)N(Cc1ccc(F)c(Cl)c1)CC3)OP(=O)(O)O [Compound 1] | 1200
C[C@@H](CN1C(=O)c2c3c(c(O)c(=O)n2[C@@]12CC[C@H]1C[C@H]12)C(=O)N(Cc1ccc(F)c(Cl)c1)CC3)OC(=O)[C@@H](N)CCCCN [Compound 8] | 46
CC(C)C[C@H](N)C(=O)O[C@@H](C)CN1C(=O)c2c3c(c(O)c(=O)n2[C@@]12CC[C@H]1C[C@H]12)C(=O)N(Cc1ccc(F)c(Cl)c1)CC3 [Compound 10] | 49
CC(C)[C@H](N)C(=O)O[C@@H](C)CN1C(=O)c2c3c(c(O)c(=O)n2[C@@]12CC[C@H]1C[C@H]12)C(=O)N(Cc1ccc(F)c(Cl)c1)CC3 [Compound 12] | 54
